Assay results reported in patent US9585854B2, “N-acetyl-L-cysteine for use in in vitro fertilization” (IASOMAI AB, priority 2012, dated 2017).
“And” between values parts separate entries of the source, which are not always exact repeats. Equal entries are not always repeated. Where two headings read alike, the source gives them in different places.

What was measured:
[1] = cited from earlier work
1-cell rabbit embryos [2] = tested on: 1-cell rabbit embryos
Source text: (§1) The eventual occurrence of NAC embryotoxicity was preliminary tested.
(§2) To verify the embryotoxicity of NAC the application of two embryotoxicity techniques—rabbit embryo bioassay and human sperm motility bioassay—were used.

Jurkat cells = test: Cell adhesion assay of Jurkat cells on fibronectin; format: cell-based, human; conditions: NAC 5 mM for 2 h pretreatment, eosin Y absorbance 540 nm, vs control
Method: Cell Adhesion Assay. Seven μg/ml of human fibronectin (Sigma Aldrich Chem Co) were saturated with 2% bovine serum albumin (BSA) for 30 min at 37° C. and washed twice with phosphate buffered saline (PBS). Jurkat cells were then seeded onto the wells for 2 h at 37° C.; then, nonadherent cells were aspirated, and the wells were rinsed with PBS. Adhering cells were fixed overnight with 2% formaldehyde and stained with eosin Y for 30 min. Eosin Y was then extracted by addition of a mixture of 1% of glacial acetic acid and 50% ethanol, and absorbance was measured at 540 nm.
NAC increases the adhesions of Jurkat cells on fibronectin. The adhesion assay was performed by using control or NAC (5 mM for 2 h)-treated Jurkat cells. […] Cell adhesion was then quantitated by staining the cells attached to junction protein-coated plates with eosin Y and reading the absorbance in a microplate reader.
Cells were solubilized and eosin Y and absorbance was quantitated at 540 nm. No antibody, illustrated by black bars; anti-VLA-4 (10 ng/ml) illustrated by grey bars; and anti-VLA-4 (10 μg/ml) illustrated by white bars. Data are means+/−SE(n=3).*, P less than 0.01 vs. control. From FIG. 1 it can be concluded that NAC treatment increases adhesion (junction protein molecules).

[3] = thiol residue easily oxidized by oxygen, light and other radiations; cited from earlier work
pregnancy = test: pulsed oral administration of NAC to patients; format: in vivo, human; conditions: three consecutive days a week
Method: Below is the result from giving pulsed administration of NAC to 15 patients, 8 of which became pregnant. According to this, NAC was administered to patients per os for 3 months or more according to the following schedule: 600 mg three times a day, three consecutive days a week. […] 7, no. 4, pp. 355-359, 2007.]; (2) splitting the total dose in 3 is simple for patients and, with reference to the known NAC pharmacokinetics [[…] and […], “Pharmacokinetic and pharmacodynamic studies of N-acetylcysteine, a potential chemopreventive agent during a phase I trial,” Cancer Epidemiology Biomarkers and Prevention, vol. 4, no. 3, pp. 245-251, 1995.], grants a nearly constant plasma level of the drug; (3) the four-day medication-free interval provides a washout period useful to limit the reported decrease of NAC plasma level observed during prolonged treatments. According to examples described in the specification 15 patients were treated with pulsed administration of N-acetyl-L-cysteine for use in IVF orally in a dose of 600 mg three times a day during three consecutive days followed by four days of interruption during 3 months or more.

[4] = cited from earlier work; remark: listed apart in the source
embryo implantation = embryo implantation in oxytocin-treated mice; format: in vivo; conditions: oxytocin-treated mice
Source text: Indeed, in mice, NAC was confirmed to support embryo implantation. In the animal model, embryo implantation rate was decreased when the mice were given oxytocin.
In mice, NAC was confirmed to support embryo implantation. In the animal model, embryo implantation rate was decreased when the mice were given oxytocin.

uterine contractions = test: clinical case: intravenous NAC prior to embryo transfer; format: in vivo, human; conditions: patient, NAC 50 mg/kg intravenous infusion 60 min
Method: The very first case of clinical application of NAC prior to embryo transfer was recently documented. NAC was administered in a concentration of 50 mg/kg to a patient who had previously undergone five embryo transfers involving a total number of 8 good-quality embryos. Immediately before embryo transfer, the presence of increased uterine contractile activity was confirmed by ultrasound. NAC 50 mg/kg body weight was administered in intravenous infusion for 60 min. Embryo transfer was carried out 60 min from the end of the 60 min NAC 50 mg/kg body weight administration. Both before connecting the infusion and directly before embryo transfer, a transvaginal sagittal scan recording was performed.

[5] = set-up: species or system human; conditions: in vivo
Source text: GSH is e.g. normally conjugated to reactive metabolites formed by paracetamol and helps detoxify them. When paracetamol is overdosed GSH is however depleted and the paracetamol metabolites start reacting with cellular proteins, eventually leading to cell death. In the treatment of fulminant hepatic failure after paracetamol poisoning NAC acts instead of GSH in the detoxification of paracetamol metabolites.
The composition of the present invention, comprising NAC for the treatment of IVF according to one embodiment to be administered intravenously at a dose between approximately 50 and 150 mg/kg/day.
For overcoming this in cases of oral administration, an option is to provide NAC in a formulation with gastric protection, suitable for preventing NAC release/solubility in the stomach. Such formulations are well known in the art and may be used with the present invention. For example, tablet coatings that are resistant to gastric fluids and allow release of the drug only in the intestine, after its transit through the stomach, may be used. Commonly used formulations include polymers such as cellulose derivatives, methacrylate amino ester copolymers. […]

1-cell rabbit embryos [6] = test: rabbit embryo bioassay (embryotoxicity)
Source text: as §1, §2

## CC(=O)N[C@@H](CS)C(=O)O [NAC, N-acetyl-L-cysteine]
[1]; Pendyala and Creaven 1995
  NAC plasma level after prolonged treatments: decrease in NAC plasma level
[1]; in vivo
  diffusion in tissues and cells: freely diffuses in almost all tissues and cells
  peak concentration in plasma reached in: about one
[1]; plasma
  half-life: about three
1-cell rabbit embryos [2]
  survival of 1-cell rabbit embryos: not to affect the survival of 1-cell rabbit embryos
Jurkat cells
  augmentation of cell adhesion: ~35%
[3]
  stability: not a stable molecule
pregnancy; individual patients 1-8, pulsed oral NAC 600 mg three times a day
  pregnancy after months post NAC treatment: 14 months and 3 months and 1 months (2×) and 19 months and 8 months and 6 months and 0 months
pregnancy; of 15 patients, per os 600 mg three times a day, 3 months or more
  patients who became pregnant: 8
[4]; daily total NAC dose, per os
  side effects: virtually free of side effects
[4]; general, doses in paracetamol poisoning about 40 g/day for 70 kg
  undesired side effect: virtually absent of undesired side effect
[4]; intravenous, higher limit 150 mg/kg/day
  side effects: virtually no side effects
Embryo implantation
  implantation rates: dose-dependently restored
Uterine contractions
  amplitude of uterine contractions: apparent decrease in their amplitude
Uterine contractions; from 10 contractions per 3 min before infusion, transvaginal scan
  uterine contractions directly before embryo transfer: five
[5]
  side effect of high oral doses: may cause abdominal pain
1-cell rabbit embryos [6]
  percentage of hatched rabbit blastocysts: not to decrease the percentage of hatched rabbit blastocysts
1-cell rabbit embryos [6]; concentrations up to 50-fold therapeutic blood concentrations
  embryotoxic effect: failed to detect an embryotoxic effect
